Assay results: paper PMC3702004, “Comparison of Intake and Systemic Relative Effect Potencies of Dioxin-like Compounds in Female Mice after a Single Oral Dose” (Environmental Health Perspectives, 2013)

Columns and labels:
Cyp1b1 mRNA = assay: Cyp1b1 gene expression in liver (real-time PCR); assay type: in vivo, female C57BL/6 mice; settings: female, C57BL/6, mouse, in vivo; single oral dose, day 3; read-out: Maximum induction of hepatic Cyp1b1 mRNA, of the maximal response of TCDD
Method: (§1) Animals. Eight-week-old female C57BL/6 mice (Harlan laboratories, Venray, the Netherlands) were randomly assigned to treatment groups (six animals per group) and allowed to acclimate for 1.5 weeks. The animals were housed in groups in standard cages and conditions (23 ± 2°C, 50–60% relative humidity, 12-hr dark/light cycle) with free access to food and water. Mice received a single dose of test compound by oral gavage at a dosing volume of 10 mL/kg body weight (BW). Mice treated with corn oil vehicle (10 mL/kg BW) served as controls. For each congener, five different doses were administered, ranging from 0.5–100 μg/kg BW (TCDD) to 5,000–500,000 µg/kg BW (PCB-153). Detailed information on doses is provided in Supplemental Material, Table S1 (http://dx.doi.org/10.1289/ehp.1206336). On day 3 after dosing, animals were euthanized by CO2/O2 asphyxiation, and blood was immediately collected from the abdominal aorta. The liver, thymus, spleen, and adipose tissue were removed, weighed (liver, thymus, and spleen), snap frozen, and stored at –80°C. All animal treatments were performed with permission of the Animal Ethical Committee (DEC Utrecht) and performed according to the [Law on Animal Experiments (1977)]. Animals were treated humanely and with regard for alleviation of suffering.
(§2) RNA isolation and quantitative real-time polymerase chain reaction (PCR). Total RNA was isolated from liver and PBLs using a QIAGEN RNeasy kit (QIAGEN). Purity and concentration of the isolated RNA was determined by measuring the absorbance ratio at 260/280 nm and 230/260 nm with a Nanodrop 2000 spectrophotometer (Thermo Scientific, Asheville, NC, USA). RNA was reverse transcribed to complementary DNA (cDNA) using the iScript cDNA synthesis Kit (Bio-Rad, Veenendaal, the Netherlands). Quantitative real-time PCR analyses were performed using the iQ Real-Time PCR Detection System with SYBR green (Bio-Rad). Amplification reactions were set up with […] containing 12.5 μL iQ SYBR Green Supermix (Bio-rad), 0.5 μL distilled H2O, 1 μL (10 μM) forward primer, 1 μL (10 μM) reverse primer, and 10 μL first strand cDNA (10X diluted). Primer sequences were as follows: Cyp1a1: forward-5´-GGTTAACCATGACCGGGAACT-3´ and reverse-5´-TGCCCAAACCAAAGAGAGTGA-3´ ([Schulz et al. 2012]); Cyp1a2: forward-5´-ACATTCCCAAGGAGCGCTGTATCT-3´ and reverse-5´-GTCGATGGCCGAGTTGTTATTGGT-3´ ([Flaveny et al. 2010]); Cyp1b1: forward-5´-GTGGCTGCTCATCCTCTTTACC-3´ and reverse-5´-CCCACAACCTGGTCCAACTC-3´ ([Berge et al. 2004]); β-actin: forward-5´-ATGCTCCCCGGGCTGTAT-3´ and reverse-5´-CATAGGAGTCCTTCTGACCCATTC-3´ ([Schulz et al. 2012]). All primers were run through the National Center for Biotechnology Information Primer-BLAST database (http://www.ncbi.nlm.nih.gov/tools/primer-blast/) to confirm specificity and validate for optimal annealing temperature (60°C for all primers) and efficiency. The efficiency of all primer pairs was 98–102% (tested at 60°C). The following program was used for denaturation and amplification of cDNA: 3 min at 95°C, followed by 40 cycles of 15 sec at 95°C and 45 sec at 60°C. Gene expression for each sample was expressed as threshold cycle (Ct), normalized to the reference gene β-actin (ΔCt). We calculated fold induction relative to the control group.
(§3) Data analysis. We obtained concentration–response curves using a sigmoidal dose–response nonlinear regression curve fit with variable slope (GraphPad Prism 6.01; GraphPad Software Inc., San Diego, CA, USA):
(§4) In this Hill equation, y is the dependent variable (EROD activity or fold induction of mRNA levels), x the independent variable (administered or systemic dose), E0 is the estimated background response level, Emax is the maximum response, b is the estimated median effective concentration (EC50), and n is the shaping parameter of the Hill curve.
(§5) Using the congener-specific BMR20TCDD concentration, REPs were calculated relatively to TCDD: […]

Cyp1a1 mRNA in liver = assay: Cyp1a1 gene expression in liver (real-time PCR); assay type: in vivo, female C57BL/6 mice; settings: for BMR20TCDD Liver Cyp1a1 mRNA: 3 days after single oral dose; for REP Liver Cyp1a1 mRNA: relative to TCDD
Method: as §1
as §2, with “The efficiency of all primer pairs was 98–102% (tested at 60°C).” left out
as §3, §4, §5

[1] = dose metric Adm dose (µg/kg BW)
[2] = dose metric Syst liver (ng/g lipid)
[3] = dose metric Syst liver (ng/g liver)
[4] = dose metric Syst plasma (ng/g lipid)
[5] = dose metric Syst adipose (ng/g lipid)

| SMILES | Emax (Cyp1b1 mRNA) | BMR20TCDD Liver Cyp1a1 mRNA (Cyp1a1 mRNA in liver; dose metric Adm dose) | BMR20TCDD Liver Cyp1a1 mRNA (Cyp1a1 mRNA in liver; dose metric Syst plasma) | REP Liver Cyp1a1 mRNA (Cyp1a1 mRNA in liver; [1]) | REP Liver Cyp1a1 mRNA (Cyp1a1 mRNA in liver; [2]) | REP Liver Cyp1a1 mRNA (Cyp1a1 mRNA in liver; [3]) | REP Liver Cyp1a1 mRNA (Cyp1a1 mRNA in liver; [4]) | BMR20TCDD Liver Cyp1a1 mRNA (Cyp1a1 mRNA in liver; dose metric Syst adipose) | REP Liver Cyp1a1 mRNA (Cyp1a1 mRNA in liver; [5]) |
| --- | --- | --- | --- | --- | --- | --- | --- | --- | --- |
| Clc1ccc(-c2cc(Cl)c(Cl)cc2Cl)cc1Cl [PCB-118, 2,3´,4,4´,5-pentachlorobiphenyl] | < 0.3% | 139,631 µg/kg BW | 803,766 ng/g lipid | 0.000005 | 0.00005 | 0.00007 | 0.000003 | – | – |
| Clc1ccc(-c2cc(Cl)c(Cl)c(Cl)c2)cc1Cl [PCB-126, 3,3´,4,4´,5-pentachlorobiphenyl] | – | 558 µg/kg BW | – | 0.001 | 0.001 | 0.001 | 0.008 | 315 ng/g lipid | 0.008 |
| Clc1ccc(-c2cc(Cl)c(Cl)c(Cl)c2Cl)cc1Cl [PCB-156, 2,3,3´,4,4´,5-hexachlorobiphenyl] | – | 44,305 µg/kg BW | 303,586 ng/g lipid | 0.00001 | 0.0001 | 0.0001 | 0.000009 | 180,515 ng/g lipid | 0.00001 |
| Clc1cc2c(cc1Cl)Oc1c(cc(Cl)c(Cl)c1Cl)O2 [PeCDD, 1,2,3,7,8-pentachlorodibenzodioxin] | – | 1.25 µg/kg BW | 3.94 ng/g lipid | 0.5 | 0.4 | 0.4 | 0.7 | 2.36 ng/g lipid | 1 |
| Clc1cc2c(cc1Cl)Oc1cc(Cl)c(Cl)cc1O2 [TCDD, 2,3,7,8-tetrachlorodibenzodioxin, reference compound] | – | 0.64 µg/kg BW | 2.66 ng/g lipid | 1 | 1 | 1 | 1 | 2.50 ng/g lipid | 1 |
